Assay results published in US20240092758A1, “IMIDAZOLO INDAZOLE COMPOUNDS AS JAK INHIBITORS” (Theravance Biopharma R&D IP, LLC, priority 2021, published 2024).

What was measured:
JAK2 = JAK2 (Homo sapiens (Human), UniProt O60674); assay: Biochemical JAK kinase assay (LanthaScreen), JAK2; details: for Ki: read-out: JAK2 pKi (converted)
Summary of the method: (§1)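 LanthaScreen format: phospho-STAT1 (pTyr701) detected with 2 nM Tb antibody after 10 mM EDTA quench. Kinase step used Km-level ATP and 200 nM STAT1 peptide, 1 h at ambient after 1 h pre-incubation. Inhibition fitted to IC50, reported as pKi.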

[1] = test system: IL-13 induced STAT6 phosphorylation in BEAS-2B human lung epithelial cells; assay: Cellular JAKI potency assay (BEAS-2B); format: cell-based; details: BEAS-2B cells; for IC50: Homo sapiens, BEAS-2B, read-out: BEAS2B pIC50 (converted)
Summary of the method: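 BEAS-2B cells were preincubated with compound (0.1% DMSO) in HBSS/HEPES/BSA for 1 h at 37 °C, then stimulated with IL-13 (80 ng/mL before addition) for 30 min. After lysis, pSTAT6 (Tyr641) was quantified by AlphaLISA SureFire; IC50 from a 4-parameter fit of percent inhibition, reported as pIC50.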

JAK1 = JAK1 (Homo sapiens (Human), UniProt P23458); assay: Biochemical JAK kinase assay (LanthaScreen), JAK1; details: for Ki: read-out: JAK1 pKi (converted)
Summary of the method: as §1

JAK2, sequence (O60674 whole entry): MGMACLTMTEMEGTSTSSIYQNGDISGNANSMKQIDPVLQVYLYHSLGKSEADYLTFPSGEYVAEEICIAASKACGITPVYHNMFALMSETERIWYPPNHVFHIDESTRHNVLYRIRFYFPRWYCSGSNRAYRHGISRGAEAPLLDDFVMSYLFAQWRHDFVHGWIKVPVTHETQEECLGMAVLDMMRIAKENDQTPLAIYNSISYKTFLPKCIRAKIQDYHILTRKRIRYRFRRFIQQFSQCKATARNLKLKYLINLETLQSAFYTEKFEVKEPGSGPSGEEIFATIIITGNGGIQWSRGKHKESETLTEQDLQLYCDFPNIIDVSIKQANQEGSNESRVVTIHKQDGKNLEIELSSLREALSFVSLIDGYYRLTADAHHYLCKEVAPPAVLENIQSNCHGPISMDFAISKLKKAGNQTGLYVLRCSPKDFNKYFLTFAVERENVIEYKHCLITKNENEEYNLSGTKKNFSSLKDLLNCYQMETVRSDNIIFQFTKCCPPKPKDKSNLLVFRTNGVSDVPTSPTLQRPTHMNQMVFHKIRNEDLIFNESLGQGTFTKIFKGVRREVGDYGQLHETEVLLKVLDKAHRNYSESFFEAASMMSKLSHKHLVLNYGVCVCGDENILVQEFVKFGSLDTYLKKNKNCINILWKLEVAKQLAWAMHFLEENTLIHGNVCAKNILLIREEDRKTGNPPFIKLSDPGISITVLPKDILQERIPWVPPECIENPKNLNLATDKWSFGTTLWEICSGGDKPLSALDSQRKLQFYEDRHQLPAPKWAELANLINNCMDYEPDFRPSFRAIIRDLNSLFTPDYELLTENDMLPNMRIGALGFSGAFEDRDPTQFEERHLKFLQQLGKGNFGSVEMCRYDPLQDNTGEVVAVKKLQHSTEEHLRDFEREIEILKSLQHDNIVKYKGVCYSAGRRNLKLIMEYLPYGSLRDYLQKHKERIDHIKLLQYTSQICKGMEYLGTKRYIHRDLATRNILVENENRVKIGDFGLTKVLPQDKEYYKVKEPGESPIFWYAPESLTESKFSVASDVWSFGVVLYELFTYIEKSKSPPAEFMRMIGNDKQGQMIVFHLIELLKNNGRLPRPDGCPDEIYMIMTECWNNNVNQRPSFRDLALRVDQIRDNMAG
JAK1, sequence (P23458 whole entry): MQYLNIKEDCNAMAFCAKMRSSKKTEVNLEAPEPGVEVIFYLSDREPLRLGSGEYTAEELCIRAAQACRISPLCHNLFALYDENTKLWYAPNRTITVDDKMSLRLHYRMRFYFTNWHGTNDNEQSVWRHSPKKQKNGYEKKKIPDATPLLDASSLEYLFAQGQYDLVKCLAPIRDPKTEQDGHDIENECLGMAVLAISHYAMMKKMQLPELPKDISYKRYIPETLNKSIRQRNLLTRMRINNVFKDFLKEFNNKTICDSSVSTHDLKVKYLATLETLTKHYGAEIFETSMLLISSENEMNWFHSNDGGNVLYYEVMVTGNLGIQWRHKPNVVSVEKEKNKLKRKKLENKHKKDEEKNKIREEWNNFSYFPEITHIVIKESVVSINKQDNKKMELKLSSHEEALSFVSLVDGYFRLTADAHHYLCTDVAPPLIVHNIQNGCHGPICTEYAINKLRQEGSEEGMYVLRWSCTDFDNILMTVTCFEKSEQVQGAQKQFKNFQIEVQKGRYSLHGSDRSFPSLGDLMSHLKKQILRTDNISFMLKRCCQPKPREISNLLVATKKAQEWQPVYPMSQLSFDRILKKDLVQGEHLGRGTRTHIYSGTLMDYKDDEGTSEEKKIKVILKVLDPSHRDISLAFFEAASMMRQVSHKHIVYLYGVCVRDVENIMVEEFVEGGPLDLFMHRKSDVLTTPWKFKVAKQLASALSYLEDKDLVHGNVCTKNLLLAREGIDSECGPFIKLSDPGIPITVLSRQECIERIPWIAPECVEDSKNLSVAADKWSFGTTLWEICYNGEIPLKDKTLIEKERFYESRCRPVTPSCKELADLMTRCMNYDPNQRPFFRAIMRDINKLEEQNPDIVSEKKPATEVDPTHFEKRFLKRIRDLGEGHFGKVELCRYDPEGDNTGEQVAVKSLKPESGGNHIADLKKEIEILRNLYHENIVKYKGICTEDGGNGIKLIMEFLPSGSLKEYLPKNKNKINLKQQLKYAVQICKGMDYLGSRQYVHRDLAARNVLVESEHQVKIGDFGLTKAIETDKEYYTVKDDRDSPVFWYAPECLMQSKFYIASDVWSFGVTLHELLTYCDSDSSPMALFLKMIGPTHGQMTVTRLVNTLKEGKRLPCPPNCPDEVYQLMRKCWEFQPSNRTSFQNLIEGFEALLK

Compound | Ki (JAK2) | IC50 [1] | Ki (JAK1) | JAK2 pKi (JAK2) | JAK1 pKi (JAK1) | BEAS2B pIC50 [1]
CCc1cc(O)ccc1-c1ccc2c(-c3nc(C4=C[C@@H](C)N[C@@H](C)C4)c[nH]3)n[nH]c2c1 (racemic) [Example 366] | 0.1 to 1 nM | 31.6 to 100 nM | 0.1 to 1 nM |  |  | 
CCc1cc(O)ccc1-c1ccc2c(-c3nc(C4=CCN[C@@H](CO)C4)c[nH]3)n[nH]c2c1F [Example 347] |  | 31.6 to 100 nM |  | A (A represents a pKi value ≥10 (Ki≤0.1 nM)) | A (A represents a pKi value ≥10 (Ki≤0.1 nM)) | 
CCc1cc(O)ccc1-c1ccc2c(-c3nc(C4=CCN(Cc5c[nH]nn5)C4)c[nH]3)n[nH]c2c1 [Example 144] |  | 10 to 31.6 nM |  | A (A represents a pKi value ≥10 (Ki≤0.1 nM)) | A (A represents a pKi value ≥10 (Ki≤0.1 nM)) | 
CCc1cc(O)ccc1-c1ccc2c(-c3nc(C4=CCN(CCS(C)(=O)=O)CC4)c[nH]3)n[nH]c2c1F [Example 82] | 0.1 to 1 nM | 10 to 31.6 nM | 0.1 to 1 nM |  |  | 
CCc1cc(O)ccc1-c1ccc2c(-c3nc(C4=CCN(C[C@H](C)CO)C4)c[nH]3)n[nH]c2c1F [Example 332] | 0.1 to 1 nM | 10 to 31.6 nM | 0.1 to 1 nM |  |  | 
CCc1cc(O)ccc1-c1ccc2c(-c3nc(C4=CCN(C(=O)CN(C)C)C4)c[nH]3)n[nH]c2c1F [Example 333] |  | 10 to 31.6 nM | 0.1 to 1 nM | A (A represents a pKi value ≥10 (Ki≤0.1 nM)) |  | 
CCc1cc(O)ccc1-c1ccc2c(-c3nc(C4=C(C(=O)OC)CCNC4)c[nH]3)n[nH]c2c1F [Example 295] |  | 3.16 to 10 nM | 0.1 to 1 nM | A (A represents a pKi value ≥10 (Ki≤0.1 nM)) |  | 
CCc1cc(O)ccc1-c1ccc2c(-c3nc(C4=C[C@H](CC(=O)N(CC)CC)NC4)c[nH]3)n[nH]c2c1F [Example 340] |  | 10 to 31.6 nM |  | A (A represents a pKi value ≥10 (Ki≤0.1 nM)) | A (A represents a pKi value ≥10 (Ki≤0.1 nM)) | 
CCc1cc(O)ccc1-c1ccc2c(-c3nc(C4=CCN(CCCNC(=O)C(C)C)CC4)c[nH]3)n[nH]c2c1 [Example 117] |  | 3.16 to 10 nM |  | A (A represents a pKi value ≥10 (Ki≤0.1 nM)) | A (A represents a pKi value ≥10 (Ki≤0.1 nM)) | 
CCc1cc(O)ccc1-c1ccc2c(-c3nc(C4=CCN(C5CC(O)C5)CC4)c[nH]3)n[nH]c2c1F (stereo not drawn) [Example 40] |  | 10 to 31.6 nM |  | A (A represents a pKi value ≥10 (Ki≤0.1 nM)) | A (A represents a pKi value ≥10 (Ki≤0.1 nM)) | 
CCc1cc(O)ccc1-c1ccc2c(-c3nc(C4=C[C@@H](CO)NC4)c[nH]3)n[nH]c2c1 [Example 240] | 0.1 to 1 nM | 31.6 to 100 nM | 0.1 to 1 nM |  |  | 
CCc1cc(O)ccc1-c1ccc2c(-c3nc(C4=C[C@@H](C)NC4)c[nH]3)n[nH]c2c1F [Example 292] | 0.1 to 1 nM | 3.16 to 10 nM | 0.1 to 1 nM |  |  | 
CCc1cc(O)ccc1-c1ccc2c(-c3nc(C4=CCNC(CC)C4)c[nH]3)n[nH]c2c1 (stereo not drawn) [Example 312] | 0.1 to 1 nM | 10 to 31.6 nM | 0.1 to 1 nM |  |  | 
CCc1cc(O)ccc1-c1ccc2c(-c3nc(C4=CCN(C5CCC5)C4)c[nH]3)n[nH]c2c1F [Example 303] |  | 10 to 31.6 nM |  | A (A represents a pKi value ≥10 (Ki≤0.1 nM)) | A (A represents a pKi value ≥10 (Ki≤0.1 nM)) | 
CCc1cc(O)ccc1-c1ccc2c(-c3nc(C4=CC(C(C)C)NC4)c[nH]3)n[nH]c2c1F (stereo not drawn) [Example 388] | 1 to 10 nM | 31.6 to 100 nM | 1 to 10 nM |  |  | 
CCc1cc(O)ccc1-c1ccc2c(-c3nc(C4=CCCN(CCCOC)C4)c[nH]3)n[nH]c2c1 [Example 65] | 0.1 to 1 nM | 3.16 to 10 nM | 0.1 to 1 nM |  |  | 
CCc1cc(O)ccc1-c1ccc2c(-c3nc(C4=CCN(CCNC(C)=O)C4)c[nH]3)n[nH]c2c1F [Example 116] |  | 10 to 31.6 nM | 0.1 to 1 nM | A (A represents a pKi value ≥10 (Ki≤0.1 nM)) |  | 
CCc1cc(O)ccc1-c1ccc2c(-c3nc(C4=CCN(Cc5ccn[nH]5)C4)c[nH]3)n[nH]c2c1 [Example 143] |  | 10 to 31.6 nM |  | A (A represents a pKi value ≥10 (Ki≤0.1 nM)) | A (A represents a pKi value ≥10 (Ki≤0.1 nM)) | 
CCc1cc(O)ccc1-c1ccc2c(-c3nc(C4=CCN(C(=O)CN5CCN(C)CC5)C4)c[nH]3)n[nH]c2c1F [Example 365] |  | 31.6 to 100 nM | 0.1 to 1 nM | A (A represents a pKi value ≥10 (Ki≤0.1 nM)) |  | 
CCc1cc(O)ccc1-c1ccc2c(-c3nc(C4=CCN(S(C)(=O)=O)C4)c[nH]3)n[nH]c2c1 [Example 167] | 1 to 10 nM | 3.16 to 10 nM | 0.1 to 1 nM |  |  | 
CCc1cc(O)ccc1-c1ccc2c(-c3nc(C4=CC(C)CNC4)c[nH]3)n[nH]c2c1F (stereo not drawn) [Example 327] | 0.1 to 1 nM | 10 to 31.6 nM | 0.1 to 1 nM |  |  | 

Compound | Ki (JAK2) | IC50 [1] | Ki (JAK1) | JAK2 pKi (JAK2) | JAK1 pKi (JAK1) | BEAS2B pIC50 [1]
CCc1cc(O)ccc1-c1ccc2c(-c3nc(C4=C[C@@H](CC#N)NC4)c[nH]3)n[nH]c2c1 [Example 248] | 0.1 to 1 nM | 10 to 31.6 nM | 0.1 to 1 nM |  |  | 
Oc1ccc(-c2ccc3c(-c4nc(C5=CCNCC5)c[nH]4)n[nH]c3c2F)c(CC(F)(F)F)c1 [Example 387] | 0.1 to 1 nM | 31.6 to 100 nM | 1 to 10 nM |  |  | 
CCc1cc(O)ccc1-c1ccc2c(-c3nc(C4=CCN(CCNC(C)=O)CC4)c[nH]3)n[nH]c2c1 [Example 100] |  | 3.16 to 10 nM |  | A (A represents a pKi value ≥10 (Ki≤0.1 nM)) | A (A represents a pKi value ≥10 (Ki≤0.1 nM)) | 
CCc1cc(O)ccc1-c1ccc2c(-c3nc(C4=CCN[C@@H](C)C4)c[nH]3)n[nH]c2c1F [Example 311] | 0.1 to 1 nM | 10 to 31.6 nM | 0.1 to 1 nM |  |  | 
CCc1cc(O)ccc1-c1ccc2c(-c3nc(C4=CCNC(CC)C4)c[nH]3)n[nH]c2c1F (stereo not drawn) [Example 346] | 0.1 to 1 nM | 10 to 31.6 nM | 1 to 10 nM |  |  | 
CCc1cc(O)c(F)cc1-c1ccc2c(-c3nc(C4=CCNC4)c[nH]3)n[nH]c2c1 [Example 285] |  | 3.16 to 10 nM |  | A (A represents a pKi value ≥10 (Ki≤0.1 nM)) | A (A represents a pKi value ≥10 (Ki≤0.1 nM)) | 
CCc1cc(O)ccc1-c1ccc2c(-c3nc(C4=C[C@H](CO)N(CCO)C4)c[nH]3)n[nH]c2c1F [Example 263] |  | 10 to 31.6 nM |  | A (A represents a pKi value ≥10 (Ki≤0.1 nM)) | A (A represents a pKi value ≥10 (Ki≤0.1 nM)) | 
CCc1cc(O)ccc1-c1ccc2c(-c3nc(C4=CCC(C)(C)NC4)c[nH]3)n[nH]c2c1F [Example 306] | 0.1 to 1 nM | 10 to 31.6 nM | 0.1 to 1 nM |  |  | 
CCc1cc(O)ccc1-c1ccc2c(-c3nc(C4=CC5CN(C)CCN5CC4)c[nH]3)n[nH]c2c1F (stereo not drawn) [Example 335] | 0.1 to 1 nM | 10 to 31.6 nM | 0.1 to 1 nM |  |  | 
CCc1cc(O)ccc1-c1ccc2c(-c3nc(C4=CC(C)(C)NC4)c[nH]3)n[nH]c2c1F [Example 336] | 0.1 to 1 nM | 10 to 31.6 nM | 0.1 to 1 nM |  |  | 
CCc1cc(O)ccc1-c1ccc2c(-c3nc(C4=CCN(CC5CC5)C4)c[nH]3)n[nH]c2c1F [Example 290] |  | 3.16 to 10 nM |  | A (A represents a pKi value ≥10 (Ki≤0.1 nM)) | A (A represents a pKi value ≥10 (Ki≤0.1 nM)) | 
CCc1cc(O)ccc1-c1ccc2c(-c3nc(C4=CCCN(CC(=O)NC)C4)c[nH]3)n[nH]c2c1 [Example 88] |  | 10 to 31.6 nM | 0.1 to 1 nM | A (A represents a pKi value ≥10 (Ki≤0.1 nM)) |  | 
CCc1cc(O)ccc1-c1ccc2c(-c3nc(C4=C[C@@H](CC#N)NC4)c[nH]3)n[nH]c2c1F [Example 249] | 0.1 to 1 nM | 10 to 31.6 nM | 0.1 to 1 nM |  |  | 
CCc1cc(O)ccc1-c1ccc2c(-c3nc(C4=CC[C@H](C)N(CCS(C)(=O)=O)C4)c[nH]3)n[nH]c2c1F [Example 276] | 0.1 to 1 nM | 31.6 to 100 nM | 1 to 10 nM |  |  | 
CCc1cc(O)ccc1-c1ccc2c(-c3nc(C4=CCN[C@H](CO)C4)c[nH]3)n[nH]c2c1F [Example 392] |  |  |  | B (B represents a pKi value between 9 (included) and 10 (Ki between 1 nM and 0.1 nM)) | B (B represents a pKi value between 9 (included) and 10 (Ki between 1 nM and 0.1 nM)) | D (D represents a pIC50 value between 6.5 (included) and 7)
CCc1cc(O)ccc1-c1ccc2c(-c3nc(C4=CCN(CC5COC5)C4)c[nH]3)n[nH]c2c1 [Example 71] |  | 3.16 to 10 nM |  | A (A represents a pKi value ≥10 (Ki≤0.1 nM)) | A (A represents a pKi value ≥10 (Ki≤0.1 nM)) | 
CCc1cc(O)ccc1-c1ccc2c(-c3nc(C4=CCN(CC5COC5)C4)c[nH]3)n[nH]c2c1F [Example 74] |  | 10 to 31.6 nM | 0.1 to 1 nM | A (A represents a pKi value ≥10 (Ki≤0.1 nM)) |  | 
CCc1cc(O)ccc1-c1ccc2c(-c3nc(C4=CC[C@H](C)N(C[C@H](C)CO)C4)c[nH]3)n[nH]c2c1F [Example 261] | 0.1 to 1 nM | 10 to 31.6 nM | 0.1 to 1 nM |  |  | 
CCc1cc(O)ccc1-c1ccc2c(-c3nc(C4=CCN(CCC(=O)NC)C4)c[nH]3)n[nH]c2c1 [Example 95] |  | 10 to 31.6 nM |  | A (A represents a pKi value ≥10 (Ki≤0.1 nM)) | A (A represents a pKi value ≥10 (Ki≤0.1 nM)) | 
CCc1cc(O)ccc1-c1ccc2c(-c3nc(C4=CC[C@H](C)N([C@H]5C[C@H](O)C5)C4)c[nH]3)n[nH]c2c1F [Example 337] | 0.1 to 1 nM | 10 to 31.6 nM | 0.1 to 1 nM |  |  | 
CCc1cc(O)ccc1-c1ccc2c(-c3nc(C4=CCCN(CCNC(C)=O)C4)c[nH]3)n[nH]c2c1F [Example 112] | 0.1 to 1 nM | 10 to 31.6 nM | 0.1 to 1 nM |  |  | 
